Source: PubChem BioAssay AID256 (DTP/NCI, 2004)
“And” between values parts separate entries of the source, which are not always exact repeats. Equal values may be shown once. Inconclusive results and toxic doses are left out.

System: CD2F1 mice, L1210 leukemia ip, survival T/C
Experiment: NCI In Vivo Anticancer Drug Screen. Data for tumor model L1210 Leukemia (intraperitoneal) in CD2F1 (CDF1) mice
Details: higher = longer survival
In short: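 Transplantable tumor in mice; compound-treated vs vehicle-treated groups. Read-out = treated/control ratio of the measured endpoint.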

[1] = endpoint: mean survival time, dose: 100.0 mg/kg/injection, schedule: Q01DX009 (ip), vehicle: saline with Tween-80
[2] = endpoint: mean survival time, dose: 200.0 mg/kg/injection, schedule: Q01DX009 (ip), vehicle: saline with Tween-80

N[C@@H](Cc1ccc(N(CCCl)CCCl)cc1)C(=O)O
T/C (endpoint: mean survival time, dose: 0.25 mg/kg/injection, schedule: Q01DX009 (ip), vehicle: Klucel (hydroxypropylcellulose) (HPC)): 106 % of control and 108 % of control | T/C (endpoint: mean survival time, dose: 0.25 mg/kg/injection, schedule: Q01DX009 (ip), vehicle: saline): 106 % of control | T/C (endpoint: mean survival time, dose: 0.25 mg/kg/injection, schedule: Q04DX003 (ip), vehicle: saline): 113 % of control | T/C (endpoint: mean survival time, dose: 0.5 mg/kg/injection, schedule: Q01DX009 (ip), vehicle: water): 113 % of control and 112 % of control | T/C (endpoint: mean survival time, dose: 0.5 mg/kg/injection, schedule: Q04DX003 (ip), vehicle: saline): 118 % of control | T/C (endpoint: mean survival time, dose: 0.75 mg/kg/injection, schedule: Q01DX009 (ip), vehicle: Klucel (hydroxypropylcellulose) (HPC)): 115 % of control | T/C (endpoint: mean survival time, dose: 1.0 mg/kg/injection, schedule: Q01DX009 (ip), vehicle: water): 115 % of control and 123 % of control | T/C (endpoint: mean survival time, dose: 1.0 mg/kg/injection, schedule: Q## X010 (oral), vehicle: saline): 118 % of control | T/C (endpoint: mean survival time, dose: 2.0 mg/kg/injection, schedule: Q01DX001 (ip), vehicle: Klucel (hydroxypropylcellulose) (HPC)): 118 % of control | T/C (endpoint: mean survival time, dose: 2.0 mg/kg/injection, schedule: Q01DX001 (ip), vehicle: other): 108 % of control | T/C (endpoint: mean survival time, dose: 2.0 mg/kg/injection, schedule: Q01DX001 (ip), vehicle: saline with Tween-80): 122 % of control | T/C (endpoint: mean survival time, dose: 2.0 mg/kg/injection, schedule: Q01DX005 (oral), vehicle: saline): 121 % of control | T/C (endpoint: mean survival time, dose: 2.0 mg/kg/injection, schedule: Q01DX007 (ip), vehicle: saline): 166 % of control | T/C (endpoint: mean survival time, dose: 2.0 mg/kg/injection, schedule: Q01DX009 (ip), vehicle: water): 153 % of control | T/C (endpoint: mean survival time, dose: 2.0 mg/kg/injection, schedule: Q## X016 (oral), vehicle: saline): 103 % of control | T/C (endpoint: mean survival time, dose: 2.5 mg/kg/injection, schedule: Q01DX009 (ip), vehicle: saline): 166 % of control | T/C (endpoint: mean survival time, dose: 2.5 mg/kg/injection, schedule: Q04DX003 (ip), vehicle: saline): 153 % of control | T/C (endpoint: mean survival time, dose: 3.0 mg/kg/injection, schedule: Q01DX009 (ip), vehicle: Klucel (hydroxypropylcellulose) (HPC)): 164 % of control | T/C (endpoint: mean survival time, dose: 4.0 mg/kg/injection, schedule: Q01DX001 (ip), vehicle: Klucel (hydroxypropylcellulose) (HPC)): 119 % of control | T/C (endpoint: mean survival time, dose: 4.0 mg/kg/injection, schedule: Q01DX001 (ip), vehicle: other): 121 % of control | T/C (endpoint: mean survival time, dose: 4.0 mg/kg/injection, schedule: Q01DX007 (ip), vehicle: saline): 168 % of control | T/C (endpoint: mean survival time, dose: 4.0 mg/kg/injection, schedule: Q01DX009 (ip), vehicle: water): 155 % of control and 208 % of control | T/C (endpoint: mean survival time, dose: 4.0 mg/kg/injection, schedule: Q03DX003 (ip), vehicle: saline): 170 % of control | T/C (endpoint: mean survival time, dose: 4.0 mg/kg/injection, schedule: Q## X010 (ip), vehicle: saline): 160 % of control | T/C (endpoint: mean survival time, dose: 4.0 mg/kg/injection, schedule: Q## X016 (oral), vehicle: saline): 104 % of control | T/C (endpoint: mean survival time, dose: 4.5 mg/kg/injection, schedule: Q04DX003 (ip), vehicle: saline): 152 % of control | T/C (endpoint: mean survival time, dose: 5.0 mg/kg/injection, schedule: Q01DX009 (ip), vehicle: saline): 198 % of control | T/C (endpoint: mean survival time, dose: 6.0 mg/kg/injection, schedule: Q04DX003 (ip), vehicle: saline): 158 % of control | T/C (endpoint: mean survival time, dose: 7.5 mg/kg/injection, schedule: Q01DX001 (ip), vehicle: saline): 158 % of control | T/C (endpoint: mean survival time, dose: 7.5 mg/kg/injection, schedule: Q01DX009 (ip), vehicle: saline): 198 % of control | T/C (endpoint: mean survival time, dose: 7.5 mg/kg/injection, schedule: Q04DX003 (ip), vehicle: saline): 198 % of control and 266 % of control | T/C (endpoint: mean survival time, dose: 8.0 mg/kg/injection, schedule: Q01DX001 (ip), vehicle: DMSO): 180 % of control | T/C (endpoint: mean survival time, dose: 8.0 mg/kg/injection, schedule: Q01DX001 (ip), vehicle: Klucel (hydroxypropylcellulose) (HPC)): 180 % of control | T/C (endpoint: mean survival time, dose: 8.0 mg/kg/injection, schedule: Q01DX001 (ip), vehicle: saline with Tween-80): 165 % of control | T/C (endpoint: mean survival time, dose: 8.0 mg/kg/injection, schedule: Q01DX009 (ip), vehicle: water): 120 % of control and 108 % of control | T/C (endpoint: mean survival time, dose: 8.0 mg/kg/injection, schedule: Q03DX003 (ip), vehicle: saline): 211 % of control | T/C (endpoint: mean survival time, dose: 8.0 mg/kg/injection, schedule: Q## X010 (oral), vehicle: saline): 96 % of control | T/C (endpoint: mean survival time, dose: 9.0 mg/kg/injection, schedule: Q04DX003 (ip), vehicle: saline): 217 % of control | T/C (endpoint: mean survival time, dose: 12.0 mg/kg/injection, schedule: Q04DX003 (ip), vehicle: saline): 240 % of control | T/C (endpoint: mean survival time, dose: 16.0 mg/kg/injection, schedule: Q01DX001 (ip), vehicle: DMSO): 221 % of control | T/C (endpoint: mean survival time, dose: 16.0 mg/kg/injection, schedule: Q01DX001 (ip), vehicle: Klucel (hydroxypropylcellulose) (HPC)): 189 % of control | T/C (endpoint: mean survival time, dose: 16.0 mg/kg/injection, schedule: Q01DX001 (ip), vehicle: saline with Tween-80): 265 % of control | T/C (endpoint: mean survival time, dose: 16.0 mg/kg/injection, schedule: Q## X016 (oral), vehicle: saline): 164 % of control | T/C (endpoint: mean survival time, dose: 20.0 mg/kg/injection, schedule: Q01DX001 (ip), vehicle: saline): 303 % of control and 427 % of control | T/C (endpoint: mean survival time, dose: 32.0 mg/kg/injection, schedule: Q01DX001 (ip), vehicle: Klucel (hydroxypropylcellulose) (HPC)): 115 % of control | T/C (endpoint: mean survival time, dose: 32.0 mg/kg/injection, schedule: Q01DX001 (ip), vehicle: other): 217 % of control | T/C (endpoint: mean survival time, dose: 32.0 mg/kg/injection, schedule: Q01DX001 (ip), vehicle: saline with Tween-80): 183 % of control | T/C (endpoint: median survival time, dose: 1.0 mg/kg/injection, schedule: Q01DX009 (ip), vehicle: saline): 151 % of control | T/C (endpoint: median survival time, dose: 1.25 mg/kg/injection, schedule: Q01DX009 (ip), vehicle: saline): 170 % of control | T/C (endpoint: median survival time, dose: 1.5 mg/kg/injection, schedule: Q04DX003 (ip), vehicle: Klucel (hydroxypropylcellulose) (HPC)): 191 % of control | T/C (endpoint: median survival time, dose: 2.0 mg/kg/injection, schedule: Q01DX005 (ip), vehicle: saline): 152 % of control | T/C (endpoint: median survival time, dose: 2.0 mg/kg/injection, schedule: Q01DX009 (ip), vehicle: saline): 176 % of control | T/C (endpoint: median survival time, dose: 2.5 mg/kg/injection, schedule: Q01DX001 (ip), vehicle: Klucel (hydroxypropylcellulose) (HPC)): 150 % of control and 195 % of control | T/C (endpoint: median survival time, dose: 2.5 mg/kg/injection, schedule: Q01DX009 (ip), vehicle: saline): 205 % of control | T/C (endpoint: median survival time, dose: 3.0 mg/kg/injection, schedule: Q04DX003 (ip), vehicle: Klucel (hydroxypropylcellulose) (HPC)): 182 % of control | T/C (endpoint: median survival time, dose: 3.75 mg/kg/injection, schedule: Q01DX009 (ip), vehicle: saline): 158 % of control | T/C (endpoint: median survival time, dose: 4.0 mg/kg/injection, schedule: Q01DX005 (ip), vehicle: saline): 176 % of control | T/C (endpoint: median survival time, dose: 4.0 mg/kg/injection, schedule: Q01DX009 (ip), vehicle: saline): 227 % of control | T/C (endpoint: median survival time, dose: 5.0 mg/kg/injection, schedule: Q01DX009 (ip), vehicle: saline): 357 % of control | T/C (endpoint: median survival time, dose: 8.0 mg/kg/injection, schedule: Q01DX005 (ip), vehicle: saline): 211 % of control | T/C (endpoint: median survival time, dose: 8.0 mg/kg/injection, schedule: Q01DX009 (ip), vehicle: saline): 234 % of control | T/C (endpoint: median survival time, dose: 10.0 mg/kg/injection, schedule: Q01DX001 (ip), vehicle: Klucel (hydroxypropylcellulose) (HPC)): 118 % of control | T/C (endpoint: median survival time, dose: 12.0 mg/kg/injection, schedule: Q01DX001 (ip), vehicle: saline): 183 % of control and 193 % of control | T/C (endpoint: median survival time, dose: 15.0 mg/kg/injection, schedule: Q01DX009 (ip), vehicle: saline): 114 % of control and 105 % of control

Cc1cccc(NC(=O)/C=C/c2ccccc2)c1C
T/C (endpoint: mean survival time, dose: 100.0 mg/kg/injection, schedule: Q04DX002 (ip), vehicle: saline with Tween-80): 98 % of control | T/C (endpoint: mean survival time, dose: 200.0 mg/kg/injection, schedule: Q04DX002 (ip), vehicle: saline with Tween-80): 94 % of control | T/C (endpoint: mean survival time, dose: 400.0 mg/kg/injection, schedule: Q04DX002 (ip), vehicle: saline with Tween-80): 94 % of control

N#CSCCOCCSC#N
T/C (endpoint: mean survival time, dose: 2.5 mg/kg/injection, schedule: Q04DX003 (ip), vehicle: saline with Tween-80): 100 % of control | T/C (endpoint: mean survival time, dose: 5.0 mg/kg/injection, schedule: Q04DX003 (ip), vehicle: saline with Tween-80): 96 % of control

Cc1cc(Cl)ccc1NC(=O)Nc1ccccc1C(N)=O
T/C (endpoint: mean survival time, dose: 50.0 mg/kg/injection, schedule: Q01DX009 (ip), vehicle: saline with Tween-80): 95 % of control | T/C [1]: 95 % of control | T/C [2]: 91 % of control

COC(=N)/C(C#N)=N/C1OCC(O)C(O)C1O (stereo not drawn)
T/C (endpoint: mean survival time, dose: 12.5 mg/kg/injection, schedule: Q01DX005 (ip), vehicle: other): 101 % of control | T/C (endpoint: mean survival time, dose: 25.0 mg/kg/injection, schedule: Q01DX005 (ip), vehicle: other): 102 % of control | T/C (endpoint: mean survival time, dose: 50.0 mg/kg/injection, schedule: Q01DX005 (ip), vehicle: other): 102 % of control | T/C (endpoint: mean survival time, dose: 100.0 mg/kg/injection, schedule: Q01DX005 (ip), vehicle: other): 102 % of control | T/C (endpoint: mean survival time, dose: 200.0 mg/kg/injection, schedule: Q01DX005 (ip), vehicle: other): 101 % of control

S=C1SCCN1c1ccccc1
T/C [1]: 96 % of control | T/C (endpoint: mean survival time, dose: 100.0 mg/kg/injection, schedule: Q04DX003 (ip), vehicle: saline with Tween-80): 103 % of control | T/C [2]: 96 % of control | T/C (endpoint: mean survival time, dose: 200.0 mg/kg/injection, schedule: Q04DX003 (ip), vehicle: saline with Tween-80): 101 % of control | T/C (endpoint: mean survival time, dose: 400.0 mg/kg/injection, schedule: Q01DX009 (ip), vehicle: saline with Tween-80): 95 % of control | T/C (endpoint: mean survival time, dose: 400.0 mg/kg/injection, schedule: Q04DX003 (ip), vehicle: saline with Tween-80): 100 % of control
